Source: ChEMBL document CHEMBL3132769, “Fragment growing to retain or alter the selectivity of anchored kinase hinge-binding fragments” (Medchemcomm, 2014)

Tests used:
[1] = target: T1, Serine/threonine-protein kinase Sgk2 (Homo sapiens) (UniProt Q9HBY8); assay: Inhibition of human full length SGK2 expressed in baculovirus assessed as substrate phosphorylation using fluorescence-labelled peptides as substrate at 0.2 uM after 90 mins by microfluidic peptide phosphorylation assay
T1 sequence (whole entry): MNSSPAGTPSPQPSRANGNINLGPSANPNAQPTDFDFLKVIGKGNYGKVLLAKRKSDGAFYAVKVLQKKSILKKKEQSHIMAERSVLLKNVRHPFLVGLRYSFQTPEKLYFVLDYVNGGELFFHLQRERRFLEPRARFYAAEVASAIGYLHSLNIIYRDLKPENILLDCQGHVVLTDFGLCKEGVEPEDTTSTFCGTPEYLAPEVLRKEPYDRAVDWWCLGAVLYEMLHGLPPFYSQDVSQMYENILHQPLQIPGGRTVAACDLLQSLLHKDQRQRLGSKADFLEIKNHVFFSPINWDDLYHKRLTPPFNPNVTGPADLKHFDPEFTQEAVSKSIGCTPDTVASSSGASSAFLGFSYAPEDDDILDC

[2] = target: T2, Serine/threonine-protein kinase Sgk1 (Homo sapiens) (UniProt O00141); assay: Inhibition of human truncated SGK1 expressed in baculovirus assessed as substrate phosphorylation using fluorescence-labelled peptides as substrate at 0.2 uM after 90 mins by microfluidic peptide phosphorylation assay
T2 sequence (whole entry): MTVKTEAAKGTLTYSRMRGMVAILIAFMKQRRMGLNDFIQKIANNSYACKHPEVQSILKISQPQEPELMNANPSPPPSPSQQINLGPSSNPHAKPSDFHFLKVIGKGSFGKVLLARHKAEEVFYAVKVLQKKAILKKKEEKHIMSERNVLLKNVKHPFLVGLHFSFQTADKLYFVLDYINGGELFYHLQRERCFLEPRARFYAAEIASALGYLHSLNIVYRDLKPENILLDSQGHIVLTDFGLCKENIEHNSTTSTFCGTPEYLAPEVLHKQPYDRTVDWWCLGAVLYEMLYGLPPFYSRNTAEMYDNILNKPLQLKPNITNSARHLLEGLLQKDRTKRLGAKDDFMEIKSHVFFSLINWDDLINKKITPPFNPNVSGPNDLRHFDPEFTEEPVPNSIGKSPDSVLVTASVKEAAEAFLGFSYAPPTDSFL

[3] = target: T3, Interleukin-1 receptor-associated kinase 4 (Homo sapiens) (UniProt Q9NWZ3); assay: Inhibition of human IRAK4 catalytic domain expressed in baculovirus assessed as substrate phosphorylation using fluorescence-labelled peptides as substrate at 420 uM after 90 mins by microfluidic peptide phosphorylation assay
T3 sequence (whole entry): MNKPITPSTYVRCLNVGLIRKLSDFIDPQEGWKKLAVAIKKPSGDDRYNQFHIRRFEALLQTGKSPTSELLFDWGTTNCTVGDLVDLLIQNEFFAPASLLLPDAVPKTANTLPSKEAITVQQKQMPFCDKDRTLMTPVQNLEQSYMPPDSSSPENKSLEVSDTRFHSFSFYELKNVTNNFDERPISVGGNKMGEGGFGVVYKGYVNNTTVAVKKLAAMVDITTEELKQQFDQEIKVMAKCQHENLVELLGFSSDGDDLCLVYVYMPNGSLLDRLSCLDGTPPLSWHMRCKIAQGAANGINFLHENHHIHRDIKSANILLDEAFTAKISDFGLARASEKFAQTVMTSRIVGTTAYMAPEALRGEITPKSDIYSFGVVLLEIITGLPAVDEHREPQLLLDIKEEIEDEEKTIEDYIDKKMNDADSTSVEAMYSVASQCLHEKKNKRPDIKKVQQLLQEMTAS

[4] = target: T4, Testis-specific serine/threonine-protein kinase 2 (Homo sapiens) (UniProt Q96PF2); assay: Inhibition of human full length TSSK2 expressed in baculovirus assessed as substrate phosphorylation using fluorescence-labelled peptides as substrate at 9 uM after 90 mins by microfluidic peptide phosphorylation assay
T4 sequence (whole entry): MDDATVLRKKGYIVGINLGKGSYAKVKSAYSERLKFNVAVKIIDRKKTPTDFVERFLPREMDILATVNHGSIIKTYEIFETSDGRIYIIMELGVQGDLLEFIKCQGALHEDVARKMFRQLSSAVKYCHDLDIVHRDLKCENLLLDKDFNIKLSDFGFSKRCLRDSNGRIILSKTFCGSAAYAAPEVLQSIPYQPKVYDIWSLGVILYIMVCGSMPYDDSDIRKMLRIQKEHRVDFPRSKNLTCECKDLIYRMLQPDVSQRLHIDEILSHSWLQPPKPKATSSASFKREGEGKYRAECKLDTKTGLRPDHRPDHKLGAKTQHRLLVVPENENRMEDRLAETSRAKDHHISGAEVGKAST

[5] = target: T5, cGMP-dependent protein kinase 1 (Homo sapiens) (UniProt Q13976); assay: Inhibition of human full length PKG-1beta expressed in baculovirus assessed as substrate phosphorylation using fluorescence-labelled peptides as substrate at 95 uM after 90 mins by microfluidic peptide phosphorylation assay
T5 sequence (whole entry): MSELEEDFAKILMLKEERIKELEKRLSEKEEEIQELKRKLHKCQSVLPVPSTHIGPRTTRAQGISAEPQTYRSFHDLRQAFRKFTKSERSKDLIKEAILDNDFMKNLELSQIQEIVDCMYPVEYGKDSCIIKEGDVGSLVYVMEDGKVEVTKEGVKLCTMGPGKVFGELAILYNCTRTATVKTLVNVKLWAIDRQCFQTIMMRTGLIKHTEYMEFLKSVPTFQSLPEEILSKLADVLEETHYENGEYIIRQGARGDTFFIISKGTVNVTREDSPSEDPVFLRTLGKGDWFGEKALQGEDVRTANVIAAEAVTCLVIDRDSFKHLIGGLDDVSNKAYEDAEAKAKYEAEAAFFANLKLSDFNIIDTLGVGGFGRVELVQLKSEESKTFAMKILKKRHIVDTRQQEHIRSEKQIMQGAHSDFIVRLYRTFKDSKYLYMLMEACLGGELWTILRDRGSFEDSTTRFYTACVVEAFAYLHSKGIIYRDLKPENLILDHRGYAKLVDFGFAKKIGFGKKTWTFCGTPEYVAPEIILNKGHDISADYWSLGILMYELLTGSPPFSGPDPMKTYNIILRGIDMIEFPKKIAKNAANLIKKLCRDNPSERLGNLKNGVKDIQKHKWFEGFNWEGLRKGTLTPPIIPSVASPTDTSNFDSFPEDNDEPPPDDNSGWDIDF

[6] = target: Glycogen synthase kinase-3 beta (Homo sapiens) (UniProt P49841); assay: Inhibition of human full length GSK-3 beta expressed in baculovirus assessed as substrate phosphorylation using fluorescence-labelled peptides as substrate at 70 uM after 90 mins by microfluidic peptide phosphorylation assay
[7] = target: T3, Interleukin-1 receptor-associated kinase 4 (Homo sapiens); assay: Inhibition of human IRAK4 catalytic domain expressed in baculovirus assessed as substrate phosphorylation using fluorescence-labelled peptides as substrate at 70 uM after 90 mins by microfluidic peptide phosphorylation assay
[8] = test system: Tyrosine-protein kinase ABL1 (Homo sapiens), P00519 [Q252H]; assay: Inhibition of human truncated ABL Q252H mutant expressed in baculovirus assessed as substrate phosphorylation using fluorescence-labelled peptides as substrate at 1000 uM after 90 mins by microfluidic peptide phosphorylation assay

Glycogen synthase kinase-3 beta (Homo sapiens), sequence (P49841 whole entry, looked up, the tested form may be a part): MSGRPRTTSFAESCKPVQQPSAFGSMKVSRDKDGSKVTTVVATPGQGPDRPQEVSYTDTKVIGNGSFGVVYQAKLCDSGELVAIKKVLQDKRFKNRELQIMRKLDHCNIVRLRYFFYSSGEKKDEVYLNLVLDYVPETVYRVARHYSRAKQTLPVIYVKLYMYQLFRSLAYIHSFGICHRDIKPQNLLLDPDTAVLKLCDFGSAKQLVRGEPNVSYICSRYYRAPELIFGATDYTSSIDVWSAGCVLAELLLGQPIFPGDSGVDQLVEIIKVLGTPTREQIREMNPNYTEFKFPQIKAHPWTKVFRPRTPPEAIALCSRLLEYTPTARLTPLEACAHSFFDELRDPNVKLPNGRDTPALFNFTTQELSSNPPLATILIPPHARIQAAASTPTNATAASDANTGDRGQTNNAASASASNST

`Clc1ccc(C2(c3ccc(-c4ncnc5[nH]cnc45)cc3)CCNCC2)cc1` gave an inhibition [1] of 23.5% and an inhibition [2] of 33%.
Work on `c1nc(N2CCOCC2)c2nc[nH]c2n1` yielded an inhibition [3] of 74.5%.
For `NCC1CN(c2ncnc3[nH]c4cnccc4c23)CCO1` (stereo not drawn), the inhibition [4] was 0%.
Work on `NCCc1ccc(-c2ncnc3[nH]cnc23)cc1` yielded an inhibition [5] of 93%.
`CNCc1ccc(-c2ncnc3[nH]cnc23)cc1` gave an inhibition [6] of 37.5% and an inhibition [7] of 15%.
Molecule `c1cnc2[nH]ccc2c1` has an inhibition [8] of 29%.
